The supplement of paper PMC10307832

Legend:
Test in all cases: relative viability (nuclei count vs DMSO), 5 days (fraction); higher = more cells survive
[1] = compound: C=CCn1c(=O)c2cnc(Nc3ccc(N4CCN(C)CC4)cc3)nc2n1-c1cccc(C(C)(C)O)n1 [Adavosertib] + N=C(N)NC(=N)NCCc1ccccc1 [Phenformin] (partner 250 µM)
How it was run: (§1)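 Relative viability is defined as nuclei in treated wells over nuclei in vehicle wells. Duplicate plates were run and medians reported. Lung cancer cell lines in 1536-well plates were dosed by pin tool one day after seeding, with one drug or with a fixed anchor-drug dose plus five library-drug doses (not always all listed) in √10 steps, and nuclei were counted after 5 days.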

[2] = compound: COc1nc(N)nc2c1ncn2[C@@H]1O[C@H](CO)[C@@H](O)[C@@H]1O [Nelarabine] + CC1(C)CCC(c2ccc(Cl)cc2)=C(CN2CCN(c3ccc(C(=O)NS(=O)(=O)c4ccc(N[C@H](CCN5CCOCC5)CSc5ccccc5)c(S(=O)(=O)C(F)(F)F)c4)cc3)CC2)C1 [Navitoclax] (partner 0.5 µM)
How it was run: as §1

[3] = compound: C=CCn1c(=O)c2cnc(Nc3ccc(N4CCN(C)CC4)cc3)nc2n1-c1cccc(C(C)(C)O)n1 [Adavosertib] + Nc1ncn([C@H]2C[C@H](O)[C@@H](CO)O2)c(=O)n1 [Decitabine] (partner 2 µM)
How it was run: as §1

[4] = compound: C=CCn1c(=O)c2cnc(Nc3ccc(N4CCN(C)CC4)cc3)nc2n1-c1cccc(C(C)(C)O)n1 [Adavosertib] + CC(=O)Nc1cccc(-n2c(=O)n(C3CC3)c(=O)c3c(Nc4ccc(I)cc4F)n(C)c(=O)c(C)c32)c1 [Trametinib] (partner 0.02 µM)
How it was run: as §1

Cell Line | relative viability ([1]; first compound 0.01 µM) | relative viability ([1]; first compound 0.03162 µM) | relative viability ([1]; first compound 0.1 µM) | relative viability ([1]; first compound 0.3162 µM) | relative viability ([2]; first compound 0.01 µM) | relative viability ([2]; first compound 0.03162 µM) | relative viability ([2]; first compound 0.1 µM) | relative viability ([2]; first compound 0.3162 µM) | relative viability ([2]; first compound 1 µM) | relative viability ([3]; first compound 0.01 µM) | relative viability ([3]; first compound 0.03162 µM) | relative viability ([3]; first compound 0.1 µM) | relative viability ([3]; first compound 0.3162 µM) | relative viability ([4]; first compound 0.01 µM) | relative viability ([4]; first compound 0.03162 µM) | relative viability ([4]; first compound 0.1 µM) | relative viability ([4]; first compound 0.3162 µM)
EKVX | 0.249 | 0.238 | 0.227 | 0.234 | 1.14 | 0.897 | 0.856 | 1.08 | 0.982 | 0.329 | 0.388 | 0.383 | 0.4 | 0.327 | 0.34 | 0.377 | 0.401
LOU-NH91 | 0.661 | 0.743 | 0.687 | 0.725 | 0.786 | 0.588 | 0.616 | 0.632 | 0.69 | 0.819 | 0.821 | 0.798 | 0.852 | 0.773 | 0.799 | 0.828 | 0.774
SW 900 |  | 0.75 | 0.564 | 0.387 |  |  |  |  |  | 0.442 | 0.464 | 0.461 | 0.312 | 0.682 | 0.892 | 0.957 | 0.696
201T | 0.453 | 0.441 | 0.467 | 0.453 | 1.15 | 1.18 | 1.18 | 1.15 | 1.16 | 0.851 | 0.877 | 0.898 | 0.971 | 0.657 | 0.707 | 0.736 | 0.718
NCI-H1793 | 0.356 | 0.385 | 0.414 | 0.273 | 0.46 | 0.552 | 0.433 | 0.47 | 0.385 | 0.37 | 0.477 | 0.521 | 0.358 | 0.44 | 0.421 | 0.501 | 0.395
LXF-289 | 0.528 | 0.553 | 0.527 | 0.561 | 1.12 | 0.882 | 0.98 | 1 | 0.908 | 0.362 | 0.411 | 0.399 | 0.358 | 0.746 | 0.696 | 0.701 | 0.678
ChaGo-K-1 | 0.469 | 0.506 | 0.484 | 0.457 | 1.03 | 1.02 | 1.48 | 0.936 | 1.07 | 0.554 | 0.518 | 0.469 | 0.534 | 0.884 | 0.844 | 0.901 | 0.883
NCI-H23 | 0.732 | 0.759 | 0.838 | 0.585 | 0.804 | 0.821 | 0.783 | 0.854 | 0.763 | 0.299 | 0.31 | 0.255 | 0.246 | 0.363 | 0.395 | 0.339 | 0.226
